Assay results: paper PMC5799266, “ComX-Induced Exoproteases Degrade ComX in Bacillus subtilis PS-216” (Frontiers in Microbiology, 2018)
Where no end group is shown, it is not given here.

Columns and labels:
[1] = system: exoproteases in B. subtilis PS-216 floating biofilm spent media; assay: Proteolytic activity of harvested floating biofilm spent media with EDTA or subtilisin added after harvest (casein-gelatin plates); assay type: biochemical, Bacillus subtilis; settings: EDTA 1 mM added to wt floating biofilm spent medium, 16 h at 37°C
Procedure: To prepare casein gelatin agar plates 1% (w/v) casein sodium salt from bovine milk (Sigma–Aldrich, United States) and 1% (w/v) gelatin from porcine skin (Sigma–Aldrich, United States) were thoroughly dissolved in 0.02 M NaOH and the pH was equilibrated to 7 ± 0.2 as described by [Montville (1983)]. […] Finally, 1.5% (w/v) of agar was added to the casein gelatin medium. The casein gelatin medium was autoclaved at 110°C. 40 ml of the medium was poured into Petri dishes with 9 cm diameter. Wells (6 mm diameter) were cut into the casein gelatin agar using an agar punch cutter.
Proteolytic activity was determined in B. subtilis spent medium at different time points. The spent medium below the biofilm was centrifuged for 5 min at 8000 g to remove remaining planktonic cells and sterilized through filters with 0.2 μm pores. Spent medium was diluted in 10 mM sodium acetate buffer with 5 mM calcium acetate (pH 7.5). If EDTA was added to experimental samples, spent medium was diluted in PBS buffer (10 mM sodium phosphate dibasic, 1 mM potassium phosphate monobasic, 137 mM NaCl, and 2.7 mM KCl pH 7). The diluted spent medium (100 μl) was dispensed into the wells punched into the casein gelatin agar. The plates were incubated for 16 h at 37°C when the proteolytic zones were measured. […]

[2] = system: PaprE-gfp expression in B. subtilis PS-216 mutants; assay: PaprE-gfp expression during formation of floating biofilm, complementation with ComX; assay type: cell-based, Bacillus subtilis
Procedure: To measure gene expression in floating biofilms (pellicles) a spore suspension 1% (v/v) was inoculated into the liquid MSgg medium. In some experiments the MSgg medium was supplemented with 20% (v/v) of the spent medium containing ComX, which was heterologously produced by E. coli ED367 ([Ansaldi et al., 2002]). The spent M9 medium of E. coli ED367 that was not induced by IPTG was used as a negative control.
Briefly, 200 μl aliquots of inoculated MSgg medium, sometimes supplemented with M9 spent medium were dispensed in a sterile 96-well black transparent bottom microtiter plate in four technical replicates. The lid was sealed with micropore tape and the space between wells was filled with sterile distilled water to minimize the effect of medium evaporation. The microtiter plate was incubated in the Cytation 3 imaging reader (BioTek, United States) at 37°C without shaking. Optical density at 650 nm and fluorescence intensity were measured in half hour intervals for up to 60 h. Fluorescence intensity of GFP (green fluorescent protein) was used to monitor PaprE-gfp expression with excitation at 480 nm and emission at 510 nm. The gain was set on 50. In a parallel experimental setup the same strains without the fluorescent marker were always cultured. To calculate the final expression the autofluorescence of unmarked strains was deducted from the fluorescence of the marked strains. Fluorescence intensity was normalized per OD650 of fluorescently labeled strains at each time point.

[3] = system: exoprotease production of B. subtilis PS-216 ΔcomQ floating biofilms; assay: Proteolytic activity in spent media of floating biofilms grown with ComX (casein-gelatin plates); assay type: cell-based, Bacillus subtilis; settings: ΔcomQ mutant, 24 h floating biofilm in MSgg + 20% (v/v) ED367 M9 spent medium with ComX, 12-well plates, 37°C; casein-gelatin plate zones; three biological replicates
Procedure: (§1) To harvest pellicle spent media 1% (v/v) of B. subtilis spores were inoculated in 4 ml of MSgg medium ([Branda et al., 2001]), in some cases complemented with 20% (v/v) spent M9 minimal medium and incubated in sterile 12-well microtiter plates in static conditions at 37°C.
To prepare casein gelatin agar plates 1% (w/v) casein sodium salt from bovine milk (Sigma–Aldrich, United States) and 1% (w/v) gelatin from porcine skin (Sigma–Aldrich, United States) were thoroughly dissolved in 0.02 M NaOH and the pH was equilibrated to 7 ± 0.2 as described by [Montville (1983)]. Wherever, the proteolytic inhibition by ethylenediaminetetraacetic acid (EDTA) was tested, EDTA was added to the casein gelatin medium in 1 mM final concentration. Finally, 1.5% (w/v) of agar was added to the casein gelatin medium. The casein gelatin medium was autoclaved at 110°C. 40 ml of the medium was poured into Petri dishes with 9 cm diameter. Wells (6 mm diameter) were cut into the casein gelatin agar using an agar punch cutter.
Proteolytic activity was determined in B. subtilis spent medium at different time points. The spent medium below the biofilm was centrifuged for 5 min at 8000 g to remove remaining planktonic cells and sterilized through filters with 0.2 μm pores. […] The plates were incubated for 16 h at 37°C when the proteolytic zones were measured. […]

[4] = system: B. subtilis PS-216 ΔcomQ floating biofilm; assay: Floating biofilm morphology after addition of ComX; assay type: cell-based, Bacillus subtilis; settings: ΔcomQ mutant at 24 h, MSgg + 20% (v/v) ED367 M9 spent medium with ComX
Procedure: as §1

[5] = system: exoproteases in B. subtilis PS-216 floating biofilm spent media; assay: ComX biological activity decay in floating biofilm spent media (biosensor BM1456, PsrfAA-yfp); assay type: in vitro ADME, Bacillus subtilis; settings: for ComX biological activity decay: T0 vs 24 h at 37°C, three biological replicates
Procedure: (§2) The ComX biological activity was quantified in spent media of various B. subtilis strains harvested after 36 and 48 h of static growth, using biosensor strains: B. subtilis BM1456 and BM1400. […] The BM1400 strain only served to determine background fluorescence, since it carries no fluorescent marker. […] The BM1456 biosenor responds to ComX in the spent medium by inducing the PsrfAA-yfp reporter ([Oslizlo et al., 2014]). Since the induction of PsrfAA is proportional to the quantity of ComX ([Ansaldi et al., 2002]) we used this assay to estimate the quantity of biologically active ComX in the spent media of various pellicles.
(§3) Both biosensor strains were grown in 5 ml of CM medium supplemented with 1% (v/v) of filtered spent media of selected strains for 6 h at 37°C with shaking (200 rpm). After 6 h of incubation 200 μl aliquots were dispensed in a sterile 96-well black transparent bottom microtiter plate. The PsrfAA-yfp expression was quantified by YFP (yellow fluorescent protein) fluorescence intensity. YFP was excited at 510 nm and emissions were measured at 530 nm. The gain was set to 100. Each PsrfAA-yfp reading was normalized to OD650. The normalized autofluorescence background of BM1400 grown in the same experimental conditions was subtracted. Additionally, we subtracted the PsrfAA-yfp expression of cells exposed to ΔcomQ spent medium (lacks ComX), to account for ComX independent YFP expression.
ComX biological activity was determined in the spent media immediately after harvest (T0) and after a 24 h (T24) incubation at 37°C. We reasoned that if exoproteases in the spent medium degrade ComX the ComX biological activity at T0 will be greater than at T24. To calculate the ComX biological activity decay we used the following equation:
ComXbiologicalactivitydecay[%]= ComXbiologicalactivity(To)−ComXbiologicalactivity(T24)/ComXbiologicalactivity(To)*100
The same approach was used to determine ComX biological activity decay in the spent media supplemented with subtilisin (0.1 mg/ml) or metalloprotease inhibitor EDTA (1 mM) after harvesting or to estimate the effect of commercially available subtilisin on ComX heterologously produced in E. coli ED367.

subtilisin = assay: ComX biological activity decay in E. coli ED367 M9 spent medium with subtilisin (biosensor BM1456); assay type: in vitro ADME; settings: E. coli ED367 M9 spent medium with heterologous ComX, subtilisin 0.1 mg/ml, 24 h at 37°C, vs subtilisin untreated control, three biological replicates
Procedure: as §2
as §3, with “Additionally, we subtracted the PsrfAA-yfp expression of cells exposed to ΔcomQ spent medium (lacks ComX), to account for ComX independent YFP expression.” left out
ComX biological activity was determined in the spent media immediately after harvest (T0) and after a 24 h (T24) incubation at 37°C. […]

| Compound | effect on proteolytic activity of spent medium [1] | complementation of PaprE-gfp expression ([2]; degQ::tet mutant of PS-216, MSgg + 20% (v/v) ED367 M9 spent medium with ComX) | complementation of PaprE-gfp expression ([2]; ΔcomQ degQ::tet double mutant of PS-216, MSgg + 20% (v/v) ED367 M9 spent medium with ComX) | complementation of PaprE-gfp expression ([2]; ΔcomQ mutant of PS-216, floating biofilm in MSgg + 20% (v/v) M9 spent medium of IPTG-induced E. coli ED367 (heterologous ComX), 37°C, control non-induced spent medium, GFP fluorescence per OD650, three biological replicates) | complementation of spent media proteolytic activity [3] | floating biofilm morphology [4] | ComX biological activity decay, change with subtilisin ([5]; comP::cat or degQ::tet spent media + subtilisin 0.1 mg/ml added after harvest vs without, 24 h at 37°C, biosensor BM1456) | ComX biological activity decay ([5]; spent media of mutant strains (degQ::tet, comP::cat; low proteolytic activity) harvested at 36 and 48 h, biosensor BM1456) | ComX biological activity decay ([5]; spent media of wt PS-216 floating biofilms harvested at 36 and 48 h (MSgg), biosensor BM1456 PsrfAA-yfp fluorescence) | ComX biological activity decay, change with EDTA ([5]; wt spent medium + EDTA 1 mM added after harvest vs without, 24 h at 37°C, biosensor BM1456) | decay of the ComX biological activity, change with subtilisin (subtilisin) |
| --- | --- | --- | --- | --- | --- | --- | --- | --- | --- | --- | --- |
| O=C(O)CN(CCN(CC(=O)O)CC(=O)O)CC(=O)O [EDTA, ethylenediaminetetraacetic acid] | decreases | – | – | – | – | – | – | – | – | – | – |
| ComX: auto-inducing signaling peptide of B. subtilis ComQXPA system, modified by isoprenyl transferase ComQ; native in spent media or heterologously produced by E. coli ED367 (ADPITRQWGD; also: isoprenylated by ComQ, site not given here; UniProt P45453 46-55, looked up) | – | does not complement | does not complement | complementation was partial | complemented | restores the ΔcomQ mutant floating biofilm morphology to the wt morphology | increased | low | high | decreases | increases |
